Experimental data from ChEMBL document CHEMBL1149398, “Pyrrolizidine esters and amides as 5-HT4 receptor agonists and antagonists” (J Med Chem, 2006).

Legend:
[1] = molecular target: T1, 5-hydroxytryptamine receptor 4 (Rattus norvegicus, UniProt Q62758); assay: Antagonism at 5HT4 receptor in rat tunica muscularis mucosa; format: functional, tissue-based; settings: read-out: pA2 (converted)
[2] = molecular target: Serotonin 2 (5-HT2) receptor (Homo sapiens, UniProt P41595+P28223+P28335); assay: Binding affinity to 5HT2 receptor; format: protein assay
[3] = molecular target: Beta-1 adrenergic receptor (Homo sapiens, UniProt P08588); assay: Binding affinity to adrenergic beta-1 receptor
Chain of Beta-1 adrenergic receptor (P08588 whole entry): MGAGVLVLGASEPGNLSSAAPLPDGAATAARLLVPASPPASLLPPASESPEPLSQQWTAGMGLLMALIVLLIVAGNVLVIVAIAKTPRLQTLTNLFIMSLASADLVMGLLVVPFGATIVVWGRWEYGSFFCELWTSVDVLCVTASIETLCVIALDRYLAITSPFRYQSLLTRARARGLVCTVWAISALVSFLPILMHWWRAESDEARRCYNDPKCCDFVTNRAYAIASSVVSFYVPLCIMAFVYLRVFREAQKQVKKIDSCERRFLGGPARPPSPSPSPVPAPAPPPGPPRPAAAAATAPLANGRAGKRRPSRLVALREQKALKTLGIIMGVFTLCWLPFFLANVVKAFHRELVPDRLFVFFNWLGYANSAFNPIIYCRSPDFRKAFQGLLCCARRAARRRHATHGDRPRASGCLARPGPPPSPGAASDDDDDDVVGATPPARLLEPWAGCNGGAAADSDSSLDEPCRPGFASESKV

[4] = molecular target: T2, Serotonin 3 (5-HT3) receptor (Rattus norvegicus, UniProt P35563+Q9JJ16); assay: Displacement of [3H]GR65630 from 5HT3 receptor in brain cortex from Wistar rat; format: tissue-based
T2 sequence (P35563 whole entry): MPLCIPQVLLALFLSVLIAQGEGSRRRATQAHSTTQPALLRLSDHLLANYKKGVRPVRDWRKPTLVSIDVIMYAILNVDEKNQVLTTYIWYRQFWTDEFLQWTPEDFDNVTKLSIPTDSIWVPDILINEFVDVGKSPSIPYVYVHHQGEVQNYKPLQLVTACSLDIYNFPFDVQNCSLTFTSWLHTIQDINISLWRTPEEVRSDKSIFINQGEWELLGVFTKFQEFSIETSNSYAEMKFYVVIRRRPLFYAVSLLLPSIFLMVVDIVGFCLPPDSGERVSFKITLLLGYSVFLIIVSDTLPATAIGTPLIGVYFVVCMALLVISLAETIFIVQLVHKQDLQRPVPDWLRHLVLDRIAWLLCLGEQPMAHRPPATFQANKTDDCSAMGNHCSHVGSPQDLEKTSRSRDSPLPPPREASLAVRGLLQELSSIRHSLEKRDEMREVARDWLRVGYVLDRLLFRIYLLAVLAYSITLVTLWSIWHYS
T2 sequence (Q9JJ16 whole entry): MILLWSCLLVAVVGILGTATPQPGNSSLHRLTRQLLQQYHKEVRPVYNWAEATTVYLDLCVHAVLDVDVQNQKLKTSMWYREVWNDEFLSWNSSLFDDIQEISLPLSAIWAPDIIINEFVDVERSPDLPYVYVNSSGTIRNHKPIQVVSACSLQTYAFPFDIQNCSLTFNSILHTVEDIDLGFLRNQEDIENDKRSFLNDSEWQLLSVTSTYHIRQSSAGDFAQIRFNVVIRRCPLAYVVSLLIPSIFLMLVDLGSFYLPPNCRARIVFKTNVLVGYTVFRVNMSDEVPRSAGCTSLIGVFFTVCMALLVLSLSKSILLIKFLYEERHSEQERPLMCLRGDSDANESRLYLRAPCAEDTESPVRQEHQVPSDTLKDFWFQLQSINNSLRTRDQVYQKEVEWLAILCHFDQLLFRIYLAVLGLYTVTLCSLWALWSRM

Canis familiaris [5] = assay: Effect on solid gastric emptying in iv dosed dog; format: functional; settings: Canis lupus familiaris, Stomach
Salmonella typhi [6] = assay: Mutagenic activity in a GLP study using Salmonella Typhimurium TA98 in presence of S9 fraction at 7.2-3600 ug/plate; format: toxicity, organism-based; settings: salmonella enterica subsp. enterica […]
[7] = molecular target: T3, Serotonin 3 receptor (5HT3) (Mus musculus) (UniProt Q9JHJ5+P23979); assay: Antagonism at 5HT3 receptor in mice by von Bezold-Jarisch reflex inhibition at 10 mg/kg, ip; format: functional, organism-based; parameters: dose 10 mg/kg
T3 sequence (P23979 whole entry, looked up): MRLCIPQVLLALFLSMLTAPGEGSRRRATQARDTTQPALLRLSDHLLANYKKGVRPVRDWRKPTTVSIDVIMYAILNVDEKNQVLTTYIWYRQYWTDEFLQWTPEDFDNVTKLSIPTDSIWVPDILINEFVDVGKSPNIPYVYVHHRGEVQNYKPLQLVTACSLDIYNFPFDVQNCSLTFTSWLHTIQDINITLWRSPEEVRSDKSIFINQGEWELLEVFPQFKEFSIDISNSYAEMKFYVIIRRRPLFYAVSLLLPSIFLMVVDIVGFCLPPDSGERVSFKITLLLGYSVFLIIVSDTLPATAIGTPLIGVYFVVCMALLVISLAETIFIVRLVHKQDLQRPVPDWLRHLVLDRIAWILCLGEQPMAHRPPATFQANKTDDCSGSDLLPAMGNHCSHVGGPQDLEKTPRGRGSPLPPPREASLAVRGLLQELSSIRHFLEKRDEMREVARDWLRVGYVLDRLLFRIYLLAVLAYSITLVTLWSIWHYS
T3 sequence (Q9JHJ5 whole entry, looked up): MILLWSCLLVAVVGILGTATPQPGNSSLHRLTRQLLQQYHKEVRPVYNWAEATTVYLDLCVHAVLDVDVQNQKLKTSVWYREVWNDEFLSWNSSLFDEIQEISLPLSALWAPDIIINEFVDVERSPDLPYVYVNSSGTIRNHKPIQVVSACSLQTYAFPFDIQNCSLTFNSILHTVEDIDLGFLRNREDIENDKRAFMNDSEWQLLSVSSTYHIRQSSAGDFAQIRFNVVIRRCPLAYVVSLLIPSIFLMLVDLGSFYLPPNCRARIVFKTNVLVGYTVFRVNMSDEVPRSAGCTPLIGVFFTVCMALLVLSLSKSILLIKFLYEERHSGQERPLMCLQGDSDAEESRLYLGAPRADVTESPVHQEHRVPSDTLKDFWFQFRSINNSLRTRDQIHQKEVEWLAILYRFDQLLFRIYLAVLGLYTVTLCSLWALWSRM

[8] = molecular target: T3, Serotonin 3 receptor (5HT3) (Mus musculus); assay: Antagonism at 5HT3 receptor in mice by von Bezold-Jarisch reflex inhibition at 1 mg/kg, ip; format: functional, organism-based; parameters: dose 1 mg/kg
Salmonella typhi [9] = assay: Mutagenic activity in a GLP study using Salmonella Typhimurium TA100 in presence of S9 fraction at 7.2-3600 ug/plate; format: toxicity, organism-based; settings: salmonella enterica subsp. enterica […]
Salmonella typhi [10] = assay: Mutagenic activity in a GLP study using Salmonella Typhimurium TA97 in presence of S9 fraction at 7.2-3600 ug/plate; format: toxicity, organism-based; settings: salmonella enterica subsp. enterica […]
Canis familiaris [11] = assay: Contractile response of the antrum in iv dosed fasted dog; format: functional; settings: Canis lupus familiaris
Salmonella typhi [12] = assay: Mutagenic activity in a GLP study using Salmonella Typhimurium TA1535 in presence of S9 fraction at 7.2-3600 ug/plate; format: toxicity, organism-based; settings: salmonella enterica subsp. enterica […]
[13] = molecular target: T3, Serotonin 3 receptor (5HT3) (Mus musculus); assay: Antagonism at 5HT3 receptor in mice by von Bezold-Jarisch reflex inhibition at 3 mg/kg, ip; format: functional, organism-based; parameters: dose 3 mg/kg
[14] = molecular target: T1, 5-hydroxytryptamine receptor 4; assay: Agonism at 5HT4 receptor in rat tunica muscularis mucosa; format: functional
Salmonella typhi [15] = assay: Mutagenic activity in a GLP study using Salmonella Typhimurium TA1538 in presence of S9 fraction at 7.2-3600 ug/plate; format: toxicity, organism-based; settings: salmonella enterica subsp. enterica […]

T1 sequence (Q62758 whole entry): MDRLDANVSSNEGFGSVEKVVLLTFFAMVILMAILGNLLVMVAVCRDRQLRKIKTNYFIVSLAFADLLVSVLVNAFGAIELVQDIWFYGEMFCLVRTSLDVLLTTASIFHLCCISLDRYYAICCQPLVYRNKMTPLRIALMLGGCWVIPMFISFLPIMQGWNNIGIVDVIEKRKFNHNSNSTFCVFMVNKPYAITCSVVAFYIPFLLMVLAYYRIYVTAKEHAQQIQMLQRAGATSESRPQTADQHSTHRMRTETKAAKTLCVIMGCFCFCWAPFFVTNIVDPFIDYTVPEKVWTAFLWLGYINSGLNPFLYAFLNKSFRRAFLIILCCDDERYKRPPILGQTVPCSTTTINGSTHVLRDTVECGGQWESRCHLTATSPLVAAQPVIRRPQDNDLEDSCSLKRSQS

Row | Structure (SMILES) | Kb [1] [nM] | IC50 [2] [nM] | IC50 [3] [nM] | Ki [4] [nM] | ED50 (Canis familiaris [5]) [µg/kg] | Activity (Salmonella typhi [6]) | inhibition [7] [%] | inhibition [8] [%] | Activity (Salmonella typhi [9]) | Activity (Salmonella typhi [10]) | ED50 (Canis familiaris [11]) [µg/kg] | Activity (Salmonella typhi [12]) | inhibition [13] [%] | EC50 [14] [nM] | Activity (Salmonella typhi [15])
1 | O=C(OC[C@@H]1CCN2CCC[C@@H]12)c1c[nH]c2ccccc12 | 1.17 | > 10000 | > 10000 | 5 |  |  |  |  |  |  |  |  |  |  | 
2 | COc1cc(N)c(Cl)cc1C(=O)N[C@@H]1C2CC3CN(C2)CC31 (stereo partly drawn) |  | > 10000 | > 10000 | 1.2 |  |  |  |  |  |  |  |  |  |  | 
3 | O=C(OC[C@@H]1CCN2CCC[C@@H]12)c1[nH]nc2ccccc12 (single isomer, unassigned) | 3.31 | > 10000 | > 10000 | 135 |  |  |  |  |  |  |  |  |  |  | 
4 | Cn1nc(C(=O)OC[C@@H]2CCN3CCC[C@@H]23)c2ccccc21 (single isomer, unassigned) | 2.75 | > 10000 | > 10000 | 20 |  |  |  |  |  |  |  |  |  |  | 
5 | COc1cc(N)c(Cl)cc1C(=O)NC[C@@H]1CCN2CCC[C@@H]12 |  | > 10000 | > 10000 |  | 1 | Active | 87 | 7 | Active | Active | 10 | Active | 57 | 16.5 | Active
6 | O=C(NC[C@@H]1CCN2CCC[C@@H]12)c1cc(Cl)cn2ccnc12 | 7.41 | > 10000 | > 10000 | 259 |  |  |  |  |  |  |  |  |  | > 10000 | 
